Data as given in patent US20070027130A1, “Tricyclic 6-alkylidene-penem beta-lactamase inhibitors and beta-lactam antibiotic combination: a broad spectrum antibiotic” (priority 2005, published 2007).
Like-named read-outs stand apart in the source and are kept apart here.

Assays:
Test in all cases: MIC microbroth dilution
Type in all cases: cell-based
[1] = tested on: A. baumannii GC 7687 AmpC; conditions: Acinetobacter baumannii, GC7687AMPC, β-lactamase class C, MHBII, 35° C. 18 hr, read-out: Minimal Inhibitory Concentration
Procedure: (§1) The in vitro activities of the antibiotics were determined by the microbroth dilution method as recommended by the National Committee for Clinical Laboratory Standards (NCCLS). (NCCLS. 2000. Methods for Dilution Antimicrobial Susceptibility Tests for Bacteria That Grow Aerobically; Approved Standards: M7-A5, vol. 19. National Committee for Clinical Laboratory Standards, Villanova, Pa.). Mueller-Hinton II broth (MHBII) (BBL Cockeysville, Md.), was used for the testing procedure. […]. The plates were incubated for 18-22 hours at 35 C. in ambient air.

[2] = tested on: E. cloacae GC 1477 (AmpC); conditions: Enterobacter cloacae, β-lactamase class C, MHBII, 35° C. 18 hr, read-out: Minimal Inhibitory Concentration
Procedure: as §1

[3] = tested on: E. cloacae GC 4142 (AmpC); conditions: Enterobacter cloacae
Procedure: as §1

[4] = tested on: E. cloacae GC 6991 (AmpC); conditions: Enterobacter cloacae, β-lactamase class C, MHBII, 35° C. 18 hr, read-out: Minimal Inhibitory Concentration
Procedure: as §1

E. coli GC 1480 OXA-1 = conditions: Escherichia coli, GC1480OXA1, β-lactamase class D, MHBII, 35° C. 18 hr, read-out: Minimal Inhibitory Concentration
Procedure: as §1

[5] = tested on: E. coli GC 1695 (TEM-1 + TEM-10); conditions: Escherichia coli, β-lactamase class A, A (ESBL), MHBII, 35° C. 18 hr, read-out: Minimal Inhibitory Concentration
Procedure: as §1

E. coli GC 1995 (TEM-10) = conditions: Escherichia coli, β-lactamase class A (ESBL), MHBII, 35° C. 18 hr, read-out: Minimal Inhibitory Concentration
Procedure: as §1

[6] = tested on: E. coli GC 2021 (TEM-10 + pl 6.3); conditions: Escherichia coli, 18 h, read-out: Minimal Inhibitory Concentration
Procedure: as §1

[7] = tested on: E. coli GC 2146 (TEM-1; SHV-7); conditions: Escherichia coli, β-lactamase class A, A (ESBL), MHBII, 35° C. 18 hr, read-out: Minimal Inhibitory Concentration
Procedure: as §1

E. coli GC 2300 (TEM-28) = conditions: Escherichia coli, β-lactamase class A (ESBL), MHBII, 35° C. 18 hr, read-out: Minimal Inhibitory Concentration
Procedure: as §1

E. coli GC 2400 (TEM-43) = conditions: Escherichia coli, β-lactamase class A (ESBL), MHBII, 35° C. 18 hr, read-out: Minimal Inhibitory Concentration
Procedure: as §1

[8] = tested on: E. coli GC 4971 OXA-1, TEM-1; conditions: Escherichia coli, β-lactamase class A, D, MHBII, 35° C. 18 hr, read-out: Minimal Inhibitory Concentration
Procedure: as §1

[9] = tested on: E. coli LSU 80-8 GC 6265 TEM-1; conditions: Escherichia coli, read-out: MIC* (minimum inhibitory concentration)
Procedure: as §1

[10] = tested on: K. pn GC 1554 (TEM-1 + TEM-26 + SHV-1); conditions: Klebsiella pneumoniae, β-lactamase class A, A (ESBL), MHBII, 35° C. 18 hr, read-out: Minimal Inhibitory Concentration
Procedure: as §1

[11] = tested on: K. pn GC 1963 (TEM-10 + SHV-1 + SHV-ESBL); conditions: Klebsiella pneumoniae, β-lactamase class A, MHBII, 35° C. 18 hr, read-out: Minimal Inhibitory Concentration
Procedure: as §1

[12] = tested on: K. pn GC 3104 (MIR-1 + TEM-1); conditions: Klebsiella pneumoniae, β-lactamase class A, C, MHBII, 35° C. 18 hr, read-out: Minimal Inhibitory Concentration
Procedure: as §1

[13] = tested on: K. pneumoniae GC 7632 TEM-1 KPC-2, SHV-7, SHV-12; conditions: Klebsiella pneumoniae, β-lactamase class A, A (Cb'ase), A (ESBL), MHBII, 35° C. 18 hr, read-out: Minimal Inhibitory Concentration
Procedure: as §1

[14] = tested on: K. pneumoniae GC 7635 SHV-1, KPC2; conditions: Klebsiella pneumoniae, β-lactamase class A, A (Cb'ase), MHBII, 35° C. 18 hr, read-out: Minimal Inhibitory Concentration
Procedure: as §1

[15] = tested on: P. aeruginosa ATCC 27853 AmpC-inducable; conditions: Pseudomonas aeruginosa, ATCC27853, β-lactamase class C, MHBII, 35° C. 18 hr, read-out: Minimal Inhibitory Concentration
Procedure: as §1

[16] = tested on: P. aeruginosa GC 1763 AmpC-inducible; conditions: Pseudomonas aeruginosa, β-lactamase class C, MHBII, 35° C. 18 hr, read-out: Minimal Inhibitory Concentration
Procedure: as §1

[17] = tested on: P. aeruginosa PT 8411 PTZ-R*; conditions: Pseudomonas aeruginosa; P. aeruginosa PT 8411, piperacillin-tazobactam-resistant; MHBII, 35° C. 18 hr; read-out: Minimal Inhibitory Concentration
Procedure: as §1

[18] = tested on: S. marcescens GC 1781 (Sme-1 + AmpC); conditions: Serratia marcescens, β-lactamase class A (Cb'ase), C, MHBII, 35° C. 18 hr, read-out: Minimal Inhibitory Concentration
Procedure: as §1

[19] = tested on: S. marcescens GC 4132 (AmpC); conditions: Serratia marcescens, β-lactamase class C, MHBII, 35° C. 18 hr, read-out: Minimal Inhibitory Concentration
Procedure: as §1

[20] = tested on: S. typhimurium GC 4197 CTX-M-5; conditions: Salmonella enterica, β-lactamase class A (ESBL), MHBII, 35° C. 18 hr, read-out: Minimal Inhibitory Concentration
Procedure: as §1

Measured: MIC

CO/N=C(\C(=O)N[C@@H]1C(=O)N2C(C(=O)[O-])=C(C[N+]3(C)CCCC3)CS[C@H]12)c1csc(N)n1 [Cefepime]
2 mg/L: [8] | [15] | [16]
1 mg/L: [12]
8 mg/L: [3]; E. cloacae GC 4142, β-lactamase class C, MHBII, 35° C. 18 hr, read-out: Minimal Inhibitory Concentration | [6] | [10]
> 16 mg/L: E. coli GC 1995 (TEM-10) | [7] | E. coli GC 2300 (TEM-28) | E. coli GC 2400 (TEM-43) | [11] | [13] | [14] | [20]
0.5 mg/L: [4] | [19]
16 mg/L: [1] | [3]; Table 3, E. cloacae GC4142 AmpC, read-out: MIC* (minimum inhibitory concentration) | [5] | [17]
0.06 mg/L: [9] | [18]
4 mg/L: [2] | E. coli GC 1480 OXA-1
